We go through 6 compounds from ChEMBL document CHEMBL4834452, “Discovery of a novel series of substituted quinolines acting as anticancer agents and selective EGFR blocker: Molecular docking study” (Bioorg Med Chem Lett, 2021).

Molecules are shown by their SMILES.

Sequence of Epidermal growth factor receptor (P00533 whole entry): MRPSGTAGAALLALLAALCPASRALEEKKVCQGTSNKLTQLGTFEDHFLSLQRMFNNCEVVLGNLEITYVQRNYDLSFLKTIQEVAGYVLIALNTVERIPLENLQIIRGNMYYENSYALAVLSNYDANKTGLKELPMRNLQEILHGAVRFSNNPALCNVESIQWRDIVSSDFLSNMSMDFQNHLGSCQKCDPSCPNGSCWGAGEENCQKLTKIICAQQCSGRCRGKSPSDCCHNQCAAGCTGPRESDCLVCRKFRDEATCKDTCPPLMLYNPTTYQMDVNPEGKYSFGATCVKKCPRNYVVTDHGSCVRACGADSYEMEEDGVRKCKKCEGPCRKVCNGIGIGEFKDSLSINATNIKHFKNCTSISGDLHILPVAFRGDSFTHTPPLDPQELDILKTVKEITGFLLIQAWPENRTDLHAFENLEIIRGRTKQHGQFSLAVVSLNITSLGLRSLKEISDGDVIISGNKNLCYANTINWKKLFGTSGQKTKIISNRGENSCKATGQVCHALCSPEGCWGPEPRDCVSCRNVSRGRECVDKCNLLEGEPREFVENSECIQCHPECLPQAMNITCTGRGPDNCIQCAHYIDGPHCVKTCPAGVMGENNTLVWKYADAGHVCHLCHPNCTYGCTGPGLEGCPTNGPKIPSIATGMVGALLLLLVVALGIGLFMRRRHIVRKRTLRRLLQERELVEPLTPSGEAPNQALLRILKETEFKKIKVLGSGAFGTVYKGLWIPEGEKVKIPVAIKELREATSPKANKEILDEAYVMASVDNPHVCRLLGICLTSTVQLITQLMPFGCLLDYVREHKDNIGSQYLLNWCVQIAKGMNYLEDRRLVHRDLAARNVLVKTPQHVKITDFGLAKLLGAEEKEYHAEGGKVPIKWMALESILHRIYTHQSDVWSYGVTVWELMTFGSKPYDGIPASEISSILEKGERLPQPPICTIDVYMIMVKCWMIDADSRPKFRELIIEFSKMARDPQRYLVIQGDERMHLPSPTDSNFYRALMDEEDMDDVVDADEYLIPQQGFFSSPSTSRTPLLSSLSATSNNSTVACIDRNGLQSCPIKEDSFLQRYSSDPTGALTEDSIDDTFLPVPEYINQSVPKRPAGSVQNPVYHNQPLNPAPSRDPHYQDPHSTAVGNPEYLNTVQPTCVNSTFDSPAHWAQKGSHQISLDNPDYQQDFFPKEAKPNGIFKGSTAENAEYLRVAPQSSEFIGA

The first assay concerns HCT-116. In words: Anticancer activity against human HCT-116 cells assessed as cell growth inhibition measured by MTT assay. In kind it is functional, cell-based.
As for `COc1ccc(C(Nc2ccc(Cl)cc2)n2c(=O)ccc3cc(O)ccc32)cc1` (centres undefined), the IC50 came to 20.4 µM.
On the same count and under the same terms, next, `COc1ccc(C(Nc2ccc(Br)cc2)n2c(=O)ccc3cc(O)ccc32)cc1` (centres undefined): 19.6 µM; `COc1ccc(NC(c2ccc(OC)cc2)n2c(=O)ccc3cc(O)ccc32)cc1` (centres undefined): 73.3 µM.
Still for that read-out and setting: next, `COc1ccc(C(Nc2ccc([N+](=O)[O-])cc2)n2c(=O)ccc3cc(O)ccc32)cc1` (centres undefined): 36.6 µM; `COc1ccc(C(Nc2ccccc2)n2c(=O)ccc3cc(O)ccc32)cc1` (centres undefined): 53.7 µM.
The same measure, in the same setting: the result for `C#Cc1cccc(Nc2ncnc3cc(OCCOC)c(OCCOC)cc23)c1` [ERLOTINIB] reads 20.5 µM.

A further assay concerns MCF7. In words: Anticancer activity against human MCF7 cells assessed as cell growth inhibition measured by MTT assay. In kind it is functional, cell-based.
As to `COc1ccc(C(Nc2ccc(Cl)cc2)n2c(=O)ccc3cc(O)ccc32)cc1` (centres undefined), the IC50 was determined as 11.3 µM.
With `COc1ccc(C(Nc2ccc(Br)cc2)n2c(=O)ccc3cc(O)ccc32)cc1` (centres undefined), the IC50 came to 10.8 µM.
In the case of `COc1ccc(NC(c2ccc(OC)cc2)n2c(=O)ccc3cc(O)ccc32)cc1` (centres undefined), the IC50 worked out at 49.2 µM.
On the same count and under the same terms, the result for `COc1ccc(C(Nc2ccc([N+](=O)[O-])cc2)n2c(=O)ccc3cc(O)ccc32)cc1` (centres undefined) reads 21.1 µM; that for `COc1ccc(C(Nc2ccccc2)n2c(=O)ccc3cc(O)ccc32)cc1` (centres undefined), 35.1 µM; that for `C#Cc1cccc(Nc2ncnc3cc(OCCOC)c(OCCOC)cc23)c1` [ERLOTINIB], 11.6 µM.

A further assay relates to PC-3. The assay can be described thus: Anticancer activity against human PC-3 cells assessed as cell growth inhibition measured by MTT assay. In kind it is functional, cell-based.
For `COc1ccc(C(Nc2ccc(Cl)cc2)n2c(=O)ccc3cc(O)ccc32)cc1` (centres undefined), the IC50 worked out at 35.2 µM.
Same read-out and setting: next, `COc1ccc(C(Nc2ccc(Br)cc2)n2c(=O)ccc3cc(O)ccc32)cc1` (centres undefined): 32.9 µM.
Still for that read-out and setting: next, `COc1ccc(NC(c2ccc(OC)cc2)n2c(=O)ccc3cc(O)ccc32)cc1` (centres undefined): 85.3 µM.
For `COc1ccc(C(Nc2ccc([N+](=O)[O-])cc2)n2c(=O)ccc3cc(O)ccc32)cc1` (centres undefined), the IC50 came out at 48 µM.
On the same count and under the same terms, the result for `COc1ccc(C(Nc2ccccc2)n2c(=O)ccc3cc(O)ccc32)cc1` (centres undefined) reads 79.7 µM; that for `C#Cc1cccc(Nc2ncnc3cc(OCCOC)c(OCCOC)cc23)c1` [ERLOTINIB], 26.9 µM.

Another assay concerns the target Epidermal growth factor receptor (Homo sapiens, UniProt P00533). The assay can be described thus: Inhibition of recombinant wild type EGFR-TK (unknown origin) by ELISA.
For `COc1ccc(C(Nc2ccc(Cl)cc2)n2c(=O)ccc3cc(O)ccc32)cc1` (centres undefined), the IC50 came to 1.13 µM.
On the same count and under the same terms, next, `COc1ccc(C(Nc2ccc(Br)cc2)n2c(=O)ccc3cc(O)ccc32)cc1` (centres undefined): 0.96 µM; `COc1ccc(NC(c2ccc(OC)cc2)n2c(=O)ccc3cc(O)ccc32)cc1` (centres undefined): 5.29 µM.
For `COc1ccc(C(Nc2ccc([N+](=O)[O-])cc2)n2c(=O)ccc3cc(O)ccc32)cc1` (centres undefined), the IC50 was 1.35 µM.
Turning to `COc1ccc(C(Nc2ccccc2)n2c(=O)ccc3cc(O)ccc32)cc1` (centres undefined), the IC50 came out at 14.3 µM.

The subject of the next assay is HepG2. In words: Anticancer activity against human HepG2 cells assessed as cell growth inhibition measured by MTT assay. In kind it is functional, cell-based.
For `COc1ccc(C(Nc2ccc(Cl)cc2)n2c(=O)ccc3cc(O)ccc32)cc1` (centres undefined), the IC50 turned out to be 21.5 µM.
The same measure, in the same setting: next, `COc1ccc(C(Nc2ccc(Br)cc2)n2c(=O)ccc3cc(O)ccc32)cc1` (centres undefined): 18.3 µM.
Same read-out and setting: next, `COc1ccc(NC(c2ccc(OC)cc2)n2c(=O)ccc3cc(O)ccc32)cc1` (centres undefined): 61.4 µM; `COc1ccc(C(Nc2ccc([N+](=O)[O-])cc2)n2c(=O)ccc3cc(O)ccc32)cc1` (centres undefined): 29.7 µM; `COc1ccc(C(Nc2ccccc2)n2c(=O)ccc3cc(O)ccc32)cc1` (centres undefined): 46.3 µM.
Still for that read-out and setting: the result for `C#Cc1cccc(Nc2ncnc3cc(OCCOC)c(OCCOC)cc23)c1` [ERLOTINIB] reads 17.7 µM.
